Assays:
[1] = test system: present invention protein (A22); assay: Metabolism of compounds by the present invention protein (A22), reaction solution, HPLC; assay type: in vitro ADME, Streptomyces pallidus IFO 13434T; settings: 12.5 ppm of compound, components A, B, C, 20 μl supernatant fraction of Example 61(2), 30° C. for 10 minutes
Blackgrass = assay: Herbicidal activity test, soil surface treatment; assay type: in vivo, Alopercurus myosuroides; parameters: key: 0: situations in which the condition of sprouting or vegetation at the time of examination of the plant utilized for the test was compared with and showed totally or substantially no difference with that of the untreated application; 10: situations in which the plant completely withered or the sprouting or vegetation was completely suppressed; settings: 500 g/ha, sprayed onto the surface of the soil after seeding, investigated after 19 days in a greenhouse
Experimental: (§1) Soil was packed into a round plastic pot having a diameter of 10 cm and depth of 10 cm. Barnyardgrass, Blackgrass, Ivyleaf morningglory were seeded. Five (5) parts of the test compound, 6 parts of sorpol3005X (Toho Chemical Company) and 89 parts of xylene were well mixed to produce an emulsion. A certain amount thereof was diluted with water containing 0.1% (v/v) of a sticking agent at a proportion of 1000 L for 1 hectare and was spread uniformly with a spray-gun onto the surface of the soil. After cultivating the plants for 19 days in a greenhouse, the herbicidal activity was investigated.
(§2) In the above Tables 3 and 4, the strength of the herbicidal activity is shown stepwise as 0, 1, 2, 3, 4, 5, 6, 7, 8, 9, and 10.

[2] = test system: present invention protein (A21); assay: Detection of the ability to convert compound (II) to compound (III), E. coli pKSN1543BF extract; assay type: in vitro ADME, Streptomyces misawanensis IFO 13855T; settings: 3 ppm of compound (II) labeled with 14C, components A, B, 10 minutes at 30° C.
Experimental: (§3) Reaction solutions of 30 μl were prepared and maintained for 10 minutes at 30° C. The reaction solutions consisted of a 0.1M potassium phosphate buffer (pH7.0) containing 3 ppm of compound (II) labeled with ^14C, 2 mM of β-NADPH (hereinafter, referred to as “component A”) (Oriental Yeast Company), 2 mg/ml of a ferredoxin derived from spinach (hereinafter referred to as “component B”) (Sigma Company), 0.1 U/ml of ferredoxin reductase (hereinafter, referred to as “component C”) (Sigma Company) and 23 μl of the supernatant fraction recovered in Example 32(2). Similarly to Example 4(3), the reaction solutions after the maintenance were extracted with ethyl acetate and the extracted layers were TLC analyzed. […] A spot corresponding to compound (III) was detected from the reaction solution containing E. coli pKSN849AF extract. In contrast, such a spot was not detected from the reaction solution containing E. coli pKSN2 extract.
(§4) Similarly to Example 32(3), reaction solutions of 30 μl were prepared and maintained for 10 minutes at 30° C. […] The reaction solutions after the maintenance were extracted with ethyl acetate and the extracted layers were TLC analyzed. […] A spot corresponding to compound (III) was detected from the reaction solution containing E. coli pKSN1543BF extract. In contrast, such a spot was not detected from the reaction solution containing E. coli pKSN2 extract.

[3] = test system: present invention protein (A14); assay: Detection of the ability to convert compound (II) to compound (III), E. coli pKSN1491AF extract; assay type: in vitro ADME, Streptomyces glomerochromogenes IFO 13673t; settings: 3 ppm of compound (II) labeled with 14C, components A, B, 10 minutes at 30° C.
Experimental: as §3
as §4, with “Reaction” for “Similarly to Example 32(3), reaction”, “pKSN1491AF” for “pKSN1543BF”

[4] = test system: present invention protein (A18); assay: Detection of the ability to convert compound (II) to compound (III), E. coli pKSN646BF extract; assay type: in vitro ADME, Streptomyces achromogenes IFO 12735; settings: 3 ppm of compound (II) labeled with 14C, components A, B, 10 minutes at 30° C.
Experimental: as §3
as §4, with “pKSN646BF” for “pKSN1543BF”

Ivyleaf morningglory = assay: Herbicidal activity test, foliage treatment; assay type: in vivo, Ipomoea hederacea; parameters: key: 0: situations in which the condition of sprouting or vegetation at the time of examination of the plant utilized for the test was compared with and showed totally or substantially no difference with that of the untreated application; 10: situations in which the plant completely withered or the sprouting or vegetation was completely suppressed; settings: sprayed onto the foliage of plants cultivated 10 days, investigated after 16 days in a greenhouse
Experimental: as §1, with “seeded and cultivated in a greenhouse for 10 days.” for “seeded.”, “all sides” for “surface”, “foliage from above the plant cultivated in the above pot.” for “soil.”, “16” for “19”, “activity of the test compound” for “activity”
as §2

SMILES | concentration of the compound detected from metabolism solution (A22) compared to control solution (A22) [1] | Herbicidal Activity Blackgrass (Blackgrass) | spot corresponding to compound (III) labeled with 14C (TLC) [2] | spot corresponding to compound (III) labeled with 14C (TLC) [3] | spot corresponding to compound (III) labeled with 14C (TLC) [4] | Herbicidal Activity Ivyleaf Morningglory (Ivyleaf morningglory; 125 g/ha) | Herbicidal Activity Ivyleaf Morningglory (Ivyleaf morningglory; 500 g/ha)
Cn1c(C(F)(F)F)cc(=O)n(-c2cc(Oc3cccnc3OCC(=O)O)c(Cl)cc2F)c1=O [compound (XII)] | lower |  |  |  |  |  | 
C[C@@H](Oc1cc(-n2c(=O)cc(C(F)(F)F)n(C)c2=O)c(F)cc1Cl)C(=O)O [compound (II)] |  | 10 | detected | detected | detected | 10 | 10

Reference: US8293979B2, “Weed controller metabolism proteins, genes, thereof and use of the same” (Sumitomo Chemical Company, Limited, priority 2001, dated 2012)
